The record followed here is US20130165464A1, “HETEROARYLS AND USES THEREOF” (MILLENNIUM PHARMACEUTICALS, INC., priority 2011, published 2013).

Structures are written as SMILES. Bounds are passed on as bounds.

The target of the test is T1, VPS34 (Homo sapiens, UniProt Q8NEB9).
T1 construct: GST (N); host or cells: SF9 insect cells (baculovirus)
The test is described as follows: Human VPS34 enzyme assay (Adapta TR-FRET). It counts as biochemical. The conditions noted are these: for inhibition at 1.11 µM: 1 h, at a 1.11 μM concentration, read-out: VPS34 Percent Inhibition. For orientation: In TR-FRET formats the signal depends on donor and acceptor labels being close together.

T1 sequence (Q8NEB9 whole entry): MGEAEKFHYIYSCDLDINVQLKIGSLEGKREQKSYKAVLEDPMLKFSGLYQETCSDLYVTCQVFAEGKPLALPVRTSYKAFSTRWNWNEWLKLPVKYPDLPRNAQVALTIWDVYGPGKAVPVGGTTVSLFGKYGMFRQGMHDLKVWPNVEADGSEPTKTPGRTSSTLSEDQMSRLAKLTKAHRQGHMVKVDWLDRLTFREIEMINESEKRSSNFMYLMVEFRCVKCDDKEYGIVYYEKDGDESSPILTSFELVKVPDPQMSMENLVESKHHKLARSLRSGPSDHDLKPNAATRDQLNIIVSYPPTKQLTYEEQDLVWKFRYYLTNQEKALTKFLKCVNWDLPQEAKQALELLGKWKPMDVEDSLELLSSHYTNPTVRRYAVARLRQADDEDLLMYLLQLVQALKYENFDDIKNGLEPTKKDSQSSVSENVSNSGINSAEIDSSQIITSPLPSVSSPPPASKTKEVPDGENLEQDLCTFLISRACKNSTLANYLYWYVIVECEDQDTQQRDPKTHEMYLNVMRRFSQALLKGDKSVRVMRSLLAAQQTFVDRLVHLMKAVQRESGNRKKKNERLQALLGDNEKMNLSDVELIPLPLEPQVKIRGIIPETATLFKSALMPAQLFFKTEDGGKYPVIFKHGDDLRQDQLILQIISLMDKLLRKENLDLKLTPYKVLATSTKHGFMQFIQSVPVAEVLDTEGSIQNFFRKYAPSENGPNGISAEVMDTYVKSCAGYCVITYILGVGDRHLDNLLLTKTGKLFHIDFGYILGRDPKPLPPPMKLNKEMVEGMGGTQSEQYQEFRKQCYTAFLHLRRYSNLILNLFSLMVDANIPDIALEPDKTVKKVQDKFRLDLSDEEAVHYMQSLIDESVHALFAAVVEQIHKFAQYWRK

Consider `Cc1cnc(N)cc1-n1cc(-c2nnc[nH]2)c(-c2ccccc2Cl)n1` [I-108, 4-[3-(2-chlorophenyl)-4-(4H-1,2,4-triazol-3-yl)-1H-pyrazol-1-yl]-5-methylpyridin-2-amine], for which the IC50 (as a rule, the concentration needed to halve the response being measured) was in the range of 1000 to 5000 nM and the inhibition – broadly, the share of the control response that was lost under treatment – at 1.11 µM stood at 10%.
For `COC(=O)Nc1cc(-n2cc(-c3ncc[nH]3)c(-c3ccccc3Cl)c2)c(C)cn1` [I-109, methyl {4-[3-(2-chlorophenyl)-4-(1H-imidazol-2-yl)-1H-pyrrol-1-yl]-5-methylpyridin-2-yl}carbamate], in that order: < 50 nM and 97%.
